The values below come from paper PMC12434091, “Real-time monitoring with iTLR4 assay identifies ligand-dependent TLR4-TLR4 conformational dynamics” (Frontiers in Immunology, 2025).

The assay has as its target T1, Toll-like receptor 4 (TLR4) (Homo sapiens, UniProt O00206).
T1 construct: HA-TLR4-NLuc and HA-TLR4-Venus (C-terminal tags); with MD2 and CD14 (co-expressed; not required)
The assay can be described thus: BRET TLR4-TLR4 proximity assay (iTLR4) in transfected HEK293 cells. It is filed as cell-based.

Broadly, the EC50 is the concentration that produces a half-maximal response.

T1 sequence (O00206 24-839): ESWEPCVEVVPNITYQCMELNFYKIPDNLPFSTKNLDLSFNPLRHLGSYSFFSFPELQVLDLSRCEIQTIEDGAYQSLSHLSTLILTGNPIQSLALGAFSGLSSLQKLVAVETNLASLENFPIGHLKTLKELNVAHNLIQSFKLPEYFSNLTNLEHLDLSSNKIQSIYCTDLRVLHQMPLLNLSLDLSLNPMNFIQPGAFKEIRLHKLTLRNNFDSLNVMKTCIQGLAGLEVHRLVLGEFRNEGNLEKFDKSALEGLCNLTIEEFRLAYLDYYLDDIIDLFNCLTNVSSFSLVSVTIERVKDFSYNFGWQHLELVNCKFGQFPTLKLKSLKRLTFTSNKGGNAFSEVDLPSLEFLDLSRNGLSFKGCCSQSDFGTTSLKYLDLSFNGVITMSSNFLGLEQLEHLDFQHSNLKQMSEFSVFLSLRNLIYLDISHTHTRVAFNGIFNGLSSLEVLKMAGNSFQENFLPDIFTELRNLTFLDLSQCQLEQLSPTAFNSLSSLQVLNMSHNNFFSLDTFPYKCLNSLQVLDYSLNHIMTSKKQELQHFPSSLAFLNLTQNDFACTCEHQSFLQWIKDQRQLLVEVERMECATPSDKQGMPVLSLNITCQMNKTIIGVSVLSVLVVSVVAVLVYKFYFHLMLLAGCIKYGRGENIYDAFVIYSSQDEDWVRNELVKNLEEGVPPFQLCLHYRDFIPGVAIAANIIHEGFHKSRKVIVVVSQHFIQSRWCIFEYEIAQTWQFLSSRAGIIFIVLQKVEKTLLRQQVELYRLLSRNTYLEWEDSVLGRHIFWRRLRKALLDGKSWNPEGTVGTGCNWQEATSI
T1 sequence (Q9Y6Y9 19-160 partner): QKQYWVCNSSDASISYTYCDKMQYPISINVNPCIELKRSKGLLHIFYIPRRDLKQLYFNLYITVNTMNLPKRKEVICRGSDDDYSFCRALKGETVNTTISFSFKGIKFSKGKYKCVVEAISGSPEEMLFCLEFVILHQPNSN
T1 sequence (P08571 20-345 partner): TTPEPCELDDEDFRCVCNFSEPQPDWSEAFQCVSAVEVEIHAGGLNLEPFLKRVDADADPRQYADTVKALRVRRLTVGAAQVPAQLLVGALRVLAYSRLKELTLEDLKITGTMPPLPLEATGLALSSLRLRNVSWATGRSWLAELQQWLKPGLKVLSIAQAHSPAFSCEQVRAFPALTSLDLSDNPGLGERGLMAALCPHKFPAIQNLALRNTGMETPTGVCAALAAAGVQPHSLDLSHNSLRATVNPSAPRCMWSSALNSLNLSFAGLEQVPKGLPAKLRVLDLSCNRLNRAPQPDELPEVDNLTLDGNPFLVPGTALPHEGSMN

For the compound `C=CCN1CC[C@@]23c4c5ccc(O)c4O[C@@H]2C(=O)CC[C@]3(O)[C@@H]1C5` [(+)-naloxone], the concentration for a half-maximal effect (EC50) was 4.2 µM.
With `C=CCN1CC[C@]23c4c5ccc(O)c4O[C@H]2C(=O)CC[C@@]3(O)[C@H]1C5` [(-)-naloxone] the figure was 3 µM.
